According to patent US10189803B2, “Synthesis of therapeutic and diagnostic drugs centered on regioselective and stereoselective ring opening of aziridinium ions” (ILLINOIS INSTITUTE OF TECHNOLOGY, priority 2008, dated 2019):
“And” between values parts separate entries of the source, which are not always exact repeats. Equal values may be shown once. “Also recorded” adds a separate entry of the source.

Legend:
Hela cells = experiment: Antiproliferative activity, MTS assay, HeLa cells; assay type: cell-based, Human; details: for IC50: 72 h incubation, MTS; for cytotoxicity in HeLa cells over a series of concentrations (in words): FIG. 18
Experimental: (§1) Cell culture Human cervix HeLa cell line was obtained from ATCC (Rockville, Md.) and cultured in minimum essential medium (MEM) with L-glutamine (2 mM), Earle's BSS and sodium bicarbonate (1.5 g/L), supplemented with 10% fetal bovine serum (FBS), non-essential amino acids (0.1 mM), sodium pyruvate (1 mM) and antibiotic/antimycotic solution in a humidified atmosphere with 5% CO2 at 37° C. […] Lung fibroblast MRC-5 cell line was obtained from ATCC (Rockville, Md.) and cultured in ATCC formulated EMEM, supplemented with 10% fetal bovine serum (FBS) in a humidified atmosphere with 5% CO2 at 37° C.
(§2) Antiproliferative Activity. Cells were seeded onto 96-well plate at density of 2,000 cells for Hela cells or 5,000 cells for HT29 cells or 5,000 cells for MRC-5 per well in 0.1 mL complete medium and allowed to attach for 24 h. Varying concentrations of the test compounds in the final volume of 0.1 mL complete medium were then added in at least five series dilutions and incubated for 72 h. To measure cell proliferation, the Cell Titer 96 aqueous nonreactive cell proliferation assay (Promega Life Sciences, Madison, Wis.) was used according to the manufacturer's instructions. Briefly, MTS (2 mg/mL) and PMS (0.92 mg/ml) were mixed in a ratio of 20:1. An aliquot (20 μL) of the MTS/PMS mixture was added into each well, and the plate was incubated for 3 h at 37° C. Optical absorbance at 490 nm was then recorded with an enzyme-linked immunosorbent assay (ELISA) microtiter plate reader (Biotek). Each experiment was done at least in triplicate. Antiproliferative activity of the test compounds was expressed as the fraction of optical densities of treated the cells relative to the untreated solvent controls.^31 The data were plotted in GraphPad Prizm 3.0. Nonlinear regression analysis was used to determine IC50 values.
(§3) Cell culture. Human cervix HeLa cell line was obtained from ATCC (Rockville, Md.) and cultured in minimum essential medium (MEM) with L-glutamine (2 mM), Earle's BSS and sodium bicarbonate (1.5 g/L), supplemented with 10% fetal bovine serum (FBS), non-essential amino acids (0.1 mM), sodium pyruvate (1 mM) and antibiotic/antimycotic solution in a humidified atmosphere with 5% CO2 at 37° C.
as §2, with “activity.” for “Activity.”, “cells” for “cells or 5,000 cells for MRC-5”, “controls.” for “controls.^31”

HT29 cells = experiment: Antiproliferative activity, MTS assay, HT29 cells; assay type: cell-based, Human
Experimental: as §1, §2, §3
as §2, with “activity.” for “Activity.”, “cells” for “cells or 5,000 cells for MRC-5”, “controls.” for “controls.^31”

[1] = In vitro serum stability of 64Cu-labeled ligands in rat serum (radio-TLC); assay type: in vitro ADME; details: for Purity (serum stability, radio-TLC): 37° C., n=3; for stability in rat serum (in words): 48 hours; for 64Cu dissociated from the complex: in 24 hours
Experimental: The radiolabeling reactions of the ligands with ^64Cu were performed at elevated temperatures to ensure complete complex formation. At the no-carrier-added (NCA) level, all ligands were successfully labeled with ^64Cu in quantitative radiochemical yields (100%) as determined by radio-TLC. […] The ^64Cu-labeled complexes were freshly prepared for their serum stability evaluation, which was assessed by measuring the transfer of radionuclide from the complex to serum proteins over 24 hours or 48 hours.
In vitro serum stability: To 100 μL of rat serum, 10 μL of each ^64Cu-labeled complex was added (n=3 per complex). DOTA labeled with ^64Cu was used as a positive control. The resulting solutions were incubated at 37° C. in a water-bath. At 1 h, 4 h, 24 h and 48 h after the complex addition to rat serum, the solutions were sampled and analyzed by radio-TLC.

[2] = In vitro serum stability of 177Lu-labeled complexes (radio-TLC, HPLC); assay type: in vitro ADME, mouse; design: Radiolabled Complex, in vitro serum stability (Table 1): unit not given here; details: for Radiolabled Complex, in vitro serum stability (Table 1): 37° C.
Experimental: The new ligand DEPA was radiolabeled with ^177Lu and ^205/6Bi (a surrogate of ^212Bi and ^213Bi) and the corresponding radiolabeled complexes were evaluated for in vitro serum stability as described previously. For comparison, DOTA was also radiolabeled with ^177Lu. DEPA and DOTA (0.25 M NH4OAc buffer, pH 4.0) was radiolabeled with ^177Lu at 45° C. for 0.5 h to afford ^177Lu-DEPA (Rf=0.6) and ^177Lu-DOTA (Rf=0.4) in the respective radiochemical yield of 90% and 95% as determined by radio-TLC. DEPA (0.25 M NH4OAc buffer, pH 5.0) was successfully radiolabeled with ^205/6Bi at room temperature for 1 h to afford ^205/6Bi-DEPA in 96% yield (radio-TLC). ^177Lu-DOTA, 177Lu-DEPA, and ^205/6Bi-DEPA formed were purified from unbound ^205/6Bi by ion-exchange chromatography using a Chelex-100 column (1 mL volume bed, 100-200 mesh, Na^+ form, Bio-Rad, Richmond, Calif.) eluted with PBS (pH 7.4). In vitro serum stability of the purified radiolabeled complexes was performed to determine if DEPA or DOTA radiolabeled with ^177Lu or ^205/6Bi remained stable without loss of the radionuclide in human serum. This was assessed by measuring the transfer of radionuclide from the complex to serum proteins. […] However, ˜10% of the radioactivity was released from ^177Lu-DOTA over 4 days.
In vitro serum stability of the radiolabeled metal complexes. An aliquot of 3.7 MBq of the purified ^177Lu-labeled ligands was added to 0.5 mL of mouse serum (Sigma, St. Louis, Mo.) and 0.1% NaN3. The resulting mixture was incubated at 37° C. for 96 h. Aliquots of 2 μL of the resulting mixture were analyzed by radio-TLC and HPLC at different time points, 0, 0.25, 0.5, 1, 2, 4, 6, 24, 48, and 96 h of incubation. The stability of purified ^205/6Bi-DEPA was evaluated in human serum (Gemini Bioproducts, Woodland, Calif.) for 14 days by measuring the transfer of the radionuclide from the complex to serum proteins as monitored by SE-HPLC. Radiolabeled complexes were diluted to an appropriate volume that allowed for preparation of multiple samples containing 5-10 μCi and filter-sterilized using a Millex-GV 0.22 μm filter. 140 μL of this stock solution was then mixed with 1400 μL of sterile normal human serum or saline. Aliquots (200 μL) were drawn and separated into individual tubes for subsequent analysis using aseptic technique. The samples were incubated at 37° C., and at designated intervals, subjected to analysis by SE-HPLC. Samples were loaded onto the HPLC and eluted with PBS, pH 7.4 isocratically at 1 mL/min. […] Radioactivity associated with a transfer to serum proteins generally appeared between ˜4.5-8 min.

[3] = Homo sapiens, HT-29, 72 h incubation

Molecule: Holo-C-NE3TA: ligand-transferin conjugate (holo) of C-NE3TA-NCS
- IC50 (Hela cells): 7.03 ± 0.09 µM

Molecule: O=C(O)CN1CCN(CCN(CC(=O)O)Cc2ccc([N+](=O)[O-])cc2)CCN(CC(=O)O)CC1 [N-NE3TA]
- IC50 (Hela cells; Homo sapiens): 8.4 ± 0.4 µM
- IC50 (HT29 cells; [3]): 6.8 ± 0.4 µM

Molecule: O=C(O)CNC(Cc1ccc([N+](=O)[O-])cc1)CN1CCN(CC(=O)O)CCN(CC(=O)O)CC1 (centres unmarked) [C-NE3TA, {4-Carboxymethyl-7-[2-(carboxymethyl-amino)-3-(4-nitro-phenyl)-propyl]-[1,4,7]triazonan-1-yl}-acetic acid]
- IC50 (Hela cells; Homo sapiens): 7.1 ± 0.1 µM
- IC50 (HT29 cells; [3]): 5 ± 0.7 µM

Molecule: O=C(O)CN1CCN(CCN(CC(=O)O)Cc2ccccc2)CCN(CC(=O)O)CC1 [Bn-NE3TA]
- IC50 (Hela cells): 4.4 ± 0.9 µM
- cytotoxicity in HeLa cells over a series of concentrations (in words) (Hela cells): highest activity against HeLa cells
- IC50 (HT29 cells; 72 h incubation): 2.6 ± 0.2 µM

Molecule: CC(CCC(=O)Nc1ccc(CC(CN2CCN(CC(=O)O)CCN(CC(=O)O)CC2)NCC(=O)O)cc1)C1CCC2C3CCC4CC(O)CCC4(C)C3CC(O)C12C (centres unmarked) [DCA-NE3TA, [4-Carboxymethyl-7-(2-(carboxymethyl-amino)-3-{4-[4-(3,12-dihydroxy-10,13-dimethylhexadecahydro-cyclopenta[a]phenanthren-17-yl)-pentanoylamino]-phenyl}-propyl)-[1,4,7]triazonan-1-yl]-acetic acid]
- sensitivity of HeLa cells relative to DTPA (Hela cells): approximately 40 fold
- IC50 (Hela cells; Homo sapiens): 6.3 ± 0.1 µM
- IC50 (HT29 cells; [3]): 7.5 ± 0.3 µM

Molecule: Holo-N-NE3TA: ligand-transferin conjugate (holo) of N-NE3TA-NCS
- IC50 (Hela cells): 11.5 ± 0.21 µM

Molecule: O=C(O)CNCCN1CCN(CC(=O)O)CCN(CC(=O)O)CC1 [NE3TA, (4-Carboxymethyl-7-[2-(carboxymethyl-amino)-ethyl]-[1,4,7]trizonan-1-yl)-acetic acid]
- IC50 (Hela cells; Homo sapiens): 5.7 ± 0.3 µM
- IC50 (HT29 cells; [3]): 4.7 ± 0.3 µM

Molecule: O=C(O)CNCCN1CCN(CC(=O)O)CCN(CC(=O)O)CC1.[64Cu] [^64Cu-NE3TA]
- Purity (serum stability, radio-TLC) ([1]; incubation time 1 h): 100 ± 0.0
- Purity (serum stability, radio-TLC) ([1]; incubation time 4 h): 100 ± 0.0
- Purity (serum stability, radio-TLC) ([1]; incubation time 24 h): 100 ± 0.0
- Purity (serum stability, radio-TLC) ([1]; incubation time 48 h): 100 ± 0.0
- stability in rat serum (in words) [1]: no measurable loss of radioactivity

Molecule: O=C(O)CN1CCN(CCN(CC(=O)O)CC(=O)O)CCN(CC(=O)O)CCN(CC(=O)O)CC1.[177Lu] [^177Lu-DEPA]
- Radiolabled Complex, in vitro serum stability (Table 1) ([2]; serum, 0 h): 100
- Radiolabled Complex, in vitro serum stability (Table 1) ([2]; serum, 0.5 h): 100
- Radiolabled Complex, in vitro serum stability (Table 1) ([2]; serum, 1 h): 100
- Radiolabled Complex, in vitro serum stability (Table 1) ([2]; serum, 2 h): 100
- Radiolabled Complex, in vitro serum stability (Table 1) ([2]; serum, 4 h): 100
- Radiolabled Complex, in vitro serum stability (Table 1) ([2]; serum, 6 h): 100
- Radiolabled Complex, in vitro serum stability (Table 1) ([2]; serum, 24 h): 100
- Radiolabled Complex, in vitro serum stability (Table 1) ([2]; serum, 48 h): 100
- Radiolabled Complex, in vitro serum stability (Table 1) ([2]; serum, 96 h): 100
- serum stability of 177Lu complex (in words) ([2]; serum, up to 96 h): remained intact without being dissociated in serum; also recorded: stable in serum

Molecule: Apo-N-NE3TA: ligand-transferin conjugate (apo) of N-NE3TA-NCS
- IC50 (Hela cells): 8.85 ± 1.43 µM

Molecule: O=C(O)CN1CCN(CCCO)CCN(CC(=O)O)CC1.[64Cu] [^64Cu-NBPA]
- Purity (serum stability, radio-TLC) ([1]; incubation time 1 h): 99.6 ± 0.7
- Purity (serum stability, radio-TLC) ([1]; incubation time 4 h): 97.5 ± 4.4
- Purity (serum stability, radio-TLC) ([1]; incubation time 24 h): 70.5 ± 6.5
- 64Cu dissociated from the complex [1]: 29%

Molecule: O=C(O)CN1CCN(CCN(CC(=O)O)Cc2ccccc2)CCN(CC(=O)O)CC1.[64Cu] [^64Cu-NE3TA-Bn]
- Purity (serum stability, radio-TLC) ([1]; incubation time 1 h): 100 ± 0.0
- Purity (serum stability, radio-TLC) ([1]; incubation time 4 h): 100 ± 0.0
- Purity (serum stability, radio-TLC) ([1]; incubation time 24 h): 100 ± 0.0
- Purity (serum stability, radio-TLC) ([1]; incubation time 48 h): 100 ± 0.0
- stability in rat serum (in words) [1]: no measurable loss of radioactivity

Molecule: O=C([O-])CN1CCN(CC(=O)[O-])CCN(CC(=O)[O-])CCN(CC(=O)[O-])CC1.[177Lu+3].[H+] [^177Lu-DOTA, reference compound]
- radioactivity released from the complex in serum ([2]; over 4 days): ~10% and 11%
- Radiolabled Complex, in vitro serum stability (Table 1) ([2]; serum, 0 h): 100
- Radiolabled Complex, in vitro serum stability (Table 1) ([2]; serum, 0.5 h): 99.0
- Radiolabled Complex, in vitro serum stability (Table 1) ([2]; serum, 1 h): 100.1
- Radiolabled Complex, in vitro serum stability (Table 1) ([2]; serum, 2 h): 99.3
- Radiolabled Complex, in vitro serum stability (Table 1) ([2]; serum, 4 h): 97.0
- Radiolabled Complex, in vitro serum stability (Table 1) ([2]; serum, 6 h): 97.5
- Radiolabled Complex, in vitro serum stability (Table 1) ([2]; serum, 24 h): 98.2
- Radiolabled Complex, in vitro serum stability (Table 1) ([2]; serum, 48 h): 91.2
- Radiolabled Complex, in vitro serum stability (Table 1) ([2]; serum, 96 h): 89.6

Molecule: O=C(O)CN1CCN(CC(=O)O)CCN(CC(Cc2ccc([N+](=O)[O-])cc2)N(CC(=O)O)CC(=O)O)CC1 (centres unmarked) [C-NETA]
- IC50 (Hela cells): > 100 µM
- cytotoxicity in HeLa cells over a series of concentrations (in words) (Hela cells): virtually no inhibitory activity
- IC50 (HT29 cells; 72 h incubation): 45.7 ± 4 µM

Molecule: O=C(O)CN1CCN(CCO)CCN(CC(=O)O)CC1.[64Cu] [^64Cu-NBEA]
- Purity (serum stability, radio-TLC) ([1]; incubation time 1 h): 100 ± 0.0
- Purity (serum stability, radio-TLC) ([1]; incubation time 4 h): 100 ± 0.0
- Purity (serum stability, radio-TLC) ([1]; incubation time 24 h): 45.3 ± 9.8
- 64Cu dissociated from the complex [1]: 54%
